This note sets out measurements from US9868707B2, “Small molecule agonists of neurotensin receptor 1” (SANFORD-BURNHAM MEDICAL RESEARCH INSTITUTE, priority 2012, dated 2018).

The nature of data set [1]: Parallel Artificial Membrane Permeability Assay (PAMPA). In kind it is in vitro ADME. As to the method:
The PAMPA in a 96-well sandwich plate format was used to determine the capacity of compounds to cross a model of cell membrane by passive diffusion (Avdeef, A., Nielsen, P. E., and Tsinman, O. 2004. PAMPA—a drug absorption in vitro model 11. Matching the in vivo unstirred water layer thickness by individual-well stirring in microtitre plates. Eur J Pharm Sci 22:365-374). The effective permeability of the compound was measured at an initial concentration of 50 μM. The permeability measurements were performed using a cosolvent buffer system (20% ACN/aqueous buffer) solution (pION Inc, Woburn Mass.) prepared according to the manufacturer's instructions. The compound was dissolved in buffer solution and ACN (20%, cosolvent) to the desired concentration (50 μM). The PAMPA sandwich plate consisting of a donor bottom plate and an acceptor filter plate was used. The donor wells contained the compounds in 190 μl system solution, and magnetic stir bars. The filter on the bottom of each acceptor well was coated with GIT-0 phospholipid solution (pION Inc) and filled with 200 μl of Acceptor Sink Buffer, pH 7.4 (pION Inc) containing surfactant. The permeation time was 30 min and moderate stirring (equivalent to 40 μm Aqueous Boundary Layer thickness) was applied using the Gut-Box™ (pION, Inc). After the permeation time, the sandwich was disassembled and the amount of compound present in both the donor and acceptor wells was measured by UV absorbance (250-498 nm) and compared to spectra obtained reference standards. Mass balance was used to determine the amount of material embedded in the membrane filter. The effective permeability, Pe, was calculated using the software PAMPA Evolution Plus, version 3.2 (pION Inc).
(In PAMPA a lipid-coated filter parts donor from acceptor wells.)

Data set [2] can be described thus: Plasma protein binding, Rapid Equilibrium Device, human plasma. It counts as in vitro ADME. The conditions noted are these: human plasma (EDTA), diluted 1:1 with PBS, pH 7.4, Human, read-out: Plasma Protein Binding (% Bound) (converted). As to the method:
(§1) The extent of compound bound to plasma proteins was measured using the Rapid Equilibrium Device (Pierce Thermo Scientific, Rockford Ill.). The base plate was rinsed with […] followed by 2× washes with ultrapure water and allowed to dry. Human and mouse plasma (BioChemed Services, Winchester Va.) collected in EDTA was allowed to thaw at room temperature and then warmed to 37° C., and diluted 1:1 (v:v) with 1×PBS, pH 7.4, prior to the assay. The compound (1.0 and 10.0 μM final) was added to the chamber containing 300 μl plasma:PBS. Next, 500 μl of dialysis buffer (1×PBS, pH7.4) was added to the buffer chambers of the inserts. The chambers were covered with sealing tape and incubated at 37° C. on an orbital shaker at 300× rpm for 4 hours. After the incubation time, a sample volume of 50 μl from the buffer side, representing the free concentration, and an equivalent sample volume from the plasma side, representing the total concentration, i.e. the free concentration+the concentration of drug bound to protein, were transferred from the dialysis cells to a 96 deep well plate for LCMS analysis. Results reported are the mean of each reaction duplicate, normalized to the internal standard, and expressed as a percent compound bound after the incubation time. The amount of compound in the supernatant was determined by LC/MS/MS and the percent of free and bound compounds were calculated with the following formulas: Percent of free parent compound=(amount of compound in receiver chamber/amount of compound in donor chamber)*100.

The test system of data set [3] is plasma proteins. The description is as above. In kind it is in vitro ADME. Particulars: species not stated. As to the method: as §1
A short description of data set [4]: Plasma stability, human plasma. In kind it is in vitro ADME. How it is done:
(§2) Plasma stability was determined using previously published methods (Kerns, E. H., and Di, L. 2008. Drug-like Properties: Concepts, Structure Design and Methods. Oxford UK: Elsevier). Compound (1.0 μM) was incubated at 37° C. in human or mouse plasma (from blood of healthy donors collected on EDTA) diluted to 50% (v/v) with pH 7.4 isotonic phosphate buffer. At time 0 min and 180 min, aliquots were collected, added to acetonitrile to quench the reaction and precipitate plasma proteins. These samples were centrifuged and the supernatant analyzed by the LC/MS/MS method described above for the presence of the parental compound.

Data set [5] is described as follows: Plasma stability, mouse plasma. It counts as in vitro ADME. How it is done: as §2
Data set [6] has as its system Fa2N-4 immortalized human hepatocytes. Put plainly: Cell viability with ATP-lite (hepatic toxicity). It counts as cell-based. As to the method: Hepatic toxicity of compounds was determined with Fa2N-4 immortalized human hepatocytes using the ATP-lite 1-step assay (Perkin Elmer). assay according to the manufacturer's instructions. Fa2N-4 cells (XenoTech, Kansas City, Kans.) were seeded at 50,000 cells/well, and incubated with a range of concentrations of the test compound (0.01 μM-50 μM) in MFE support, media for 24 hrs at 37° C., 5% CO2. At the end of the experiment, cell viability was determined by cellular ATP levels using the ATP-lite kit according to the manufacturer's instructions Luminescence was measured on the Infinite M200 plate reader (Tecan US).

Data set [7] relates to GPCR binding assay panel (˜40 receptors). Nature of the data set: PDSP GPCR binding assay panel. The text has this: (§3) However, these activities in in vitro binding assays may not translate into functional modulation of these receptors.
For data set [8], the system named is signal. Put plainly: Panlabs/Ricerca lead profiling panel, signal. In kind it is binding. Particulars: @ 10 μM.
Description: as §3

The subject of data set [9] is adrenergic receptors (α1a, α1B, α1D, α2A). Nature of the data set: Panlabs panel, adrenergic receptors. It counts as binding. Particulars: @ 10 μM.
Description: as §3

Data set [10] is described as follows: PK in mouse after iv and ip dose. In kind it is in vivo.
Data set [11] in a line: Brain levels in mouse after ip dosing. In kind it is in vivo.

The structures appear in SMILES notation. Several values for one entry are separate records, joined by “and”; a condition that tells them apart may be missing. Identical values can stand only once. Bounds are passed on as bounds.

The term AUC denotes concentration integrated over time. High values mean high exposure, low ones low exposure. Broadly, the Cmax is the highest concentration seen after dosing.

As for `COc1cc2nc(C3CC3)nc(N3CCN(c4ccccc4OC)CC3)c2cc1OC` [Compound 315, 2-cyclopropyl-6,7-dimethoxy-4-(4-(2-methoxyphenyl)piperazin-1-yl)quinazoline], the “PAMPA Permeability, Pe” value in data set [1] (Donor pH 5.0, Acceptor pH 7.4) turned out to be 1163 ×10⁻⁶ cm/s; in data set [1] (Donor pH 6.2, Acceptor pH 7.4), 2145 ×10⁻⁶ cm/s; in data set [1] (Donor pH 7.4, Acceptor pH 7.4), 2093 ×10⁻⁶ cm/s. In addition, the “permeability in the PAMPA assay” value in data set [1] (with increasing pH of the donor compartment) was “high permeability”. Besides, the fraction unbound at 4 h, 1 μM in [2] (1 μM) is 0.0055. Moreover, the fraction unbound at 4 h, 10 μM in data set [2] (10 μM) was 0.0078. The “plasma protein binding” value in data set [3] was “highly plasma protein bound”. Besides, the “Plasma Stability (% Remaining at 3 hrs)” value is 100% in data set [4] (Human) and 99.55% in data set [5]. Moreover, the “plasma stability” value in data set [4] (species not stated) is listed as “very high plasma stability”. Also, the “window for toxicity towards human hepatocytes” value in data set [6] is above 15 fold. The CC50 in data set [6] (24 hrs, read-out: Toxicity Towards Fa2N-4 Immortalized Human Hepatocytes LC50) is 30 µM and 29.6 µM. Moreover, in [7] (at 10 μM, ˜40 receptors tested), the “promiscuity in GPCR binding assay panel” value is “moderately promiscuous”. In addition, the Ki in [7] (on 7 receptors, read-out: Kis in GPCR binding assay panel) was below 10 µM. In data set [8], the activity at signal came out at 69%. Also, the “activity across adrenergic receptors α1a, α1B, α1D, α2A” value in data set [9] is 63-100%. Also, the Vdss in data set [10] (2 mg/kg iv dose) was determined as 6.22 L/kg. In addition, the t1/2 in [10] (2 mg/kg iv dose) is 1.93 h; in [10] (10 mg/kg ip dose), 2.58 h. Moreover, in data set [10] (10 mg/kg ip dose), the AUC amounted to 1223 ng·h/mL. Moreover, the Cmax in data set [10] (10 mg/kg ip dose) was 763 ng/mL. Also, the “PK properties in mouse” value in [10] (in vivo) is listed as “modest PK properties”. Besides, the brain/plasma in data set [11] (1 hr after 10 mg/kg ip dose) is listed as 1.3; in data set [11] (1 hr after 30 mg/kg ip dose), 1.6.
